≈ marks a conversion by molar mass, not a printed value. Values belong to the compound of their own block, whether it stands above or below them.
Legend:
Assay in all cases: ≥ marks a high value that may be exact or a test limit, other limits are often not marked, values filed in µg/mL are converted to µM
[1] = tested on: Escherichia coli DH5alpha
[2] = tested on: Zymomonas mobilis ATCC 10988
Candida parapsilosis = tested on: Candida parapsilosis
Bacillus subtilis DELTA = tested on: Bacillus subtilis DELTA
[3] = tested on: Pseudomonas aeruginosa PAO1
[4] = tested on: Klebsiella pneumoniae ATCC 700603
[5] = tested on: Staphylococcus aureus ATCC 700699
[6] = tested on: Staphylococcus aureus ATCC 29213
[7] = tested on: Escherichia coli ATCC 25922
[8] = tested on: Pseudomonas aeruginosa ATCC 27853
[9] = tested on: Staphylococcus aureus ATCC 33591
[10] = tested on: Staphylococcus epidermidis CICC 23664
[11] = tested on: Proteus mirabilis CICC 22931
[12] = tested on: Enterococcus faecium CGMCC 1.2334
[13] = tested on: Enterobacter cloacae CGMCC 1.58
Escherichia coli AS1.349 = tested on: Escherichia coli AS1.349
[14] = tested on: Staphylococcus aureus AS1.72
[15] = tested on: Pseudomonas aeruginosa CGMCC 1.860
[16] = tested on: Enterococcus faecalis CGMCC 1.595
[17] = tested on: Klebsiella pneumoniae subsp. pneumoniae CGMCC 1.176
Bacillus cereus AS1.126 = tested on: Bacillus cereus AS1.126
[18] = tested on: Escherichia coli KCTC 2223
[19] = tested on: Staphylococcus aureus ATCC 15752
[20] = tested on: Micrococcus luteus ATCC 10240

MIC [4]: > 100 µM
MIC [5]: ≥ 100 µM
MIC [6]: > 100 µM
MIC [7]: > 100 µM
MIC [8]: > 100 µM
MIC [9]: ≥ 100 µM
SMILES: CC[C@H](C)[C@H](NC(=O)[C@H](CC(=O)O)NC(=O)[C@H](CCCCN)NC(=O)[C@H](C)NC(=O)[C@H](C)NC(=O)CNC(=O)[C@H](C)NC(=O)[C@H](CC(C)C)NC(=O)[C@@H](NC(=O)[C@H](CC(=O)O)NC(=O)[C@@H](NC(=O)[C@@H](NC(=O)CN)C(C)C)C(C)C)[C@@H](C)CC)C(=O)N[C@@H](C)C(=O)NCC(=O)N[C@@H](Cc1cnc[nH]1)C(=O)N[C@@H](CC(C)C)C(=O)N[C@@H](C)C(=O)N[C@@H](CO)C(=O)N[C@@H](CCCCN)C(=O)N[C@H](C(=O)N[C@@H](CCSC)C(=O)N[C@@H](CC(N)=O)C(=O)N[C@@H](CCCCN)C(=O)N[C@@H](CC(C)C)C(N)=O)C(C)C [GVVDILAGAAKDIAGHLASKVMNKL]

MIC [4]: > 100 µM
MIC [5]: ≥ 100 µM
MIC [6]: > 100 µM
MIC [7]: 100 µM (≈ 249 µg/mL)
MIC [8]: > 100 µM
MIC [9]: ≥ 100 µM
SMILES: CC[C@H](C)[C@H](NC(=O)[C@H](CC(=O)O)NC(=O)[C@H](CCCCN)NC(=O)[C@H](C)NC(=O)[C@H](C)NC(=O)CNC(=O)[C@H](CCCCN)NC(=O)[C@H](CC(C)C)NC(=O)[C@@H](NC(=O)[C@H](CC(=O)O)NC(=O)[C@@H](NC(=O)[C@@H](NC(=O)CN)C(C)C)C(C)C)[C@@H](C)CC)C(=O)N[C@@H](C)C(=O)NCC(=O)N[C@@H](Cc1cnc[nH]1)C(=O)N[C@@H](CC(C)C)C(=O)N[C@@H](C)C(=O)N[C@@H](CO)C(=O)N[C@@H](C)C(=O)N[C@H](C(=O)N[C@@H](CCSC)C(=O)N[C@@H](CC(N)=O)C(=O)N[C@@H](CCCCN)C(=O)N[C@@H](CC(C)C)C(N)=O)C(C)C [GVVDILKGAAKDIAGHLASAVMNKL]

The next lines start with the compound.

SMILES: CC[C@H](C)[C@H](NC(=O)[C@H](CCCCN)NC(=O)[C@H](CCCCN)NC(=O)[C@H](CC(C)C)NC(=O)CN)C(=O)N[C@H](C(=O)N[C@@H](CCCCN)C(=O)N[C@@H](CCCCN)C(=O)N[C@@H](CC(C)C)C(=O)N[C@@H](CC(C)C)C(N)=O)[C@@H](C)CC [GLKKIIKKLL]
MIC [1]: ≥ 173 µM
MIC [2]: 17.3 µM (≈ 20 µg/mL)
MIC (Candida parapsilosis): 17.3 µM (≈ 20 µg/mL)
MIC (Bacillus subtilis DELTA): 13 µM (≈ 15 µg/mL)
MIC [3]: 13 µM (≈ 15 µg/mL)

SMILES: CC[C@H](C)[C@H](N)C(=O)N[C@@H](CCCCN)C(=O)N[C@@H](CCCCN)C(=O)N[C@H](C(=O)N[C@@H](Cc1c[nH]c2ccccc12)C(=O)N[C@@H](CO)C(=O)N[C@@H](CCCCN)C(=O)N[C@H](C(=O)N[C@@H](CCCCN)C(=O)N[C@@H](CCCCN)C(=O)N[C@@H](Cc1c[nH]c2ccccc12)C(=O)N[C@@H](Cc1c[nH]c2ccccc12)C(=O)N[C@@H](CCCCN)C(=O)O)[C@@H](C)CC)[C@@H](C)CC [IKKIWSKIKKWWK]
MIC [10]: 2.5 µM (≈ 4.43 µg/mL)
MIC [11]: ≥ 100 µM
MIC [12]: 12.5 µM (≈ 22.2 µg/mL)
MIC [13]: ≥ 100 µM
MIC (Escherichia coli AS1.349): 2.5 µM (≈ 4.43 µg/mL)
MIC [14]: 2.5 µM (≈ 4.43 µg/mL)
MIC [15]: 4.69 µM (≈ 8.31 µg/mL)
MIC [16]: 5 µM (≈ 8.86 µg/mL)
MIC [17]: ≥ 100 µM
MIC (Bacillus cereus AS1.126): 6.25 µM (≈ 11.1 µg/mL)

SMILES: CC[C@H](C)[C@H](NC(=O)[C@H](CCCCN)NC(=O)[C@@H](NC(=O)[C@@H](N)CC(N)=O)[C@@H](C)CC)C(=O)N[C@@H](CO)C(=O)NCC(=O)N[C@@H](CCCCN)C(=O)N[C@@H](Cc1c[nH]c2ccccc12)C(=O)N[C@@H](CCCCN)C(=O)N[C@@H](C)C(=O)N[C@@H](CCC(N)=O)C(=O)N[C@@H](CCCCN)C(=O)N[C@@H](CCCN=C(N)N)C(=O)N[C@@H](Cc1ccccc1)C(=O)N[C@@H](CC(C)C)C(=O)N[C@@H](CCCCN)C(=O)O [NIKISGKWKAQKRFLK]
MIC [18]: ≥ 32 µM
MIC [19]: ≥ 32 µM
MIC [20]: ≥ 32 µM
